From patent US20250213526A1, “TRIPLE UPTAKE INHIBITOR FOR THE TREATMENT OF ATYPICAL DEPRESSION” (priority 2022, published 2025)
“Also recorded” adds a separate entry of the source.

Legend:
Format in all cases: in vivo, rat
[1] = tested on: adult male Sprague Dawley rats; test: Fixed ratio 1 (FR1) schedule probe
Text: A fixed ratio 1 (FR1) schedule was used, and this task is the most food dense and appetite dependent operant schedule, with high sensitivity to appetite-related manipulations such as pre-feeding and appetite suppressant drugs.
Methods. The same adult male Sprague Dawley rats (n=31) as in Example 5 were used in this study. Animals trained once daily on the PROG/Chow feeding choice procedure from Monday through Thursday. On Friday, the testing day, the animals were switched from the PROG/Chow feeding choice procedure to FR1 with no prior training. Each operant session lasted 30 minutes and lever presses were recorded at the end of the run. Drug treatment and the FR1 probe occurred on the Friday after two weeks of washout period from Example 5. A dose of 20.0 mg/kg of Compound 1 or vehicle was administered via oral gavage on the testing day. Only the highest dose was tested in this study because, in Example 5, it produced the most robust decrease in lever pressing and chow intake compared to VEH. Treatment conditions were assigned randomly. Treatment group difference was assessed by unpaired t-test. A p value of <0.05 was considered statistically significant.

[2] = tested on: adult male Sprague Dawley rats; test: Progressive ratio (PROG)/Chow feeding choice task; details: for standard chow intake vs VEH / lever pressing vs VEH: 30-minute session; for chow intake vs VEH, high responders / lever pressing vs VEH, high responders: high responder group (n=15); for lever presses, low responders (chow-intake analysis, FIG. 15) / lever pressing vs VEH, low responders: low responder group (n=16); for lever presses, low responders (chow-intake analysis, FIG. 15): Dunnett's test
Description: The PROG/Chow feeding choice procedure was used as a test designed to evaluate the effort a rat is willing to make to eat a palatable food by pressing a lever instead of eating freely available standard food.
Methods. Thirty-one (n=31) adult male Sprague Dawley rats were used in this study. The animals were restricted to 85% of their free-feeding weight, with modest growth allowed throughout the study period. Animals were assessed using operant conditioning chambers. Animals were first introduced to the high carbohydrate pellets (“palatable food”) and trained to lever press using a continuous reinforcement schedule with a fixed ration of one (FR1=one active lever press trigger the delivery of the palatable food) for one week. After this, the rats were trained on the progressive ratio (progressively more lever pressures were needed to trigger the delivery of the palatable food) schedule alone for nine weeks at which point chow (“standard food”) was introduced (=PROG/Chow feeding choice procedure), and animals trained for another 5 weeks to acquire a steady baseline. Each session lasted 30 minutes and rats ran in the operant chambers once a day, five days a week (Monday-Friday). Vehicle (VEH), or Compound 1 doses of 5.0, 10.0, and 20.0 mg/kg were administered via oral gavage once a week (Thursday or Friday) after the training period. Treatment conditions were selected randomly. Lever presses and chow consumption (including spillage) were recorded after each operant session.
Statistical analyses. Repeated measures analysis of variance test (ANOVA) and planned comparisons were used to assess the data overall. Factorial ANOVA was used to assess group x treatment interaction. If significant interactions were found, planned comparisons (using the overall error term) were used to assess the groups individually. Dunnett's tests were also used to analyze differences between drug treatments and VEH. A p value of <0.05 was considered statistically significant for all analyses.

Male Long Evans Rats = test: 5-choice serial reaction time task (5-CSRTT)
Text: The 5-choice serial reaction time task (5-CSRTT) is widely used to measure attentional performance and response control (motor impulsivity) in rodents. A strength of the test is its adaptability to task modification. Variations to stimulus duration and frequency of stimulus presentation, amongst others, have become commonly used to challenge performance in the context of attention and response control. The primary objective of these studies was to examine the effect of Compound 1 on attentional performance and on aspects of response control, defined as premature responses (PREM) and perseverative responses (PSV), measures of impulsive action, and compulsive action respectively. Two experimental manipulations were undertaken to differentially challenge performance. Specifically, (1) test Compound 1 (1, 3, 10 mg/kg) under standard test conditions of 0.75 s SD, 5 s ITI, 100 trials, and (2) test Compound 1 (1, 3 mg/kg) against a long ITI challenge. The long ITI challenge is designed to elevate PREM and PSV responses and so provide a means to examine the effect of both test articles on measures of impulsive and compulsive action.
• Dosage form: 0.3% Tween80 in 0.9% Saline • Pretreatment time: 180 minutes
• Dosage form: Compound 1 was suspended in 0.3% Tween80 in 0.9% Saline and sonicated. Drug was administered at a volume of 5 mL/kg, oral (PO) route. • Pretreatment time: 180 minutes • Doses tested: Phase 1: 1, 3, 10 mg/kg; Phase 2: 1, 3 mg/kg
Housing and Management of Test System: Following a one-week period of familiarization to the test facility, animals were placed on a restricted diet regimen, in which they were fed approximately 20 g of standard laboratory chow once per day (corresponding to ˜80% of normal food consumption) following the completion of study procedures (between 16:00 h and 18:00 h). Overall food intakes were therefore based on food earned during 5-choice training/testing and chow at the end of each study day. On days where no training/testing occurred, the daily allotted lab chow was increased to approximately 24 g per animal. Water was available ad-libitum except during 5-choice training/testing sessions. Animals were maintained on a 12 h/12 h light/dark cycle with all testing conducted during the animals' light cycle.
5-choice serial reaction time task: 5-choice operant chambers were housed in sound-insulated and ventilated enclosures. Chambers consisted of an aluminum enclosure (25×30 cm), containing a reward magazine attached to a food pellet dispenser and house light on one wall, and on the opposite wall an array of 5 square niches (2.5×2.5×2.5 cm) arranged on a curved panel and raised 2.5 cm from the grid floor. An LED was positioned at the rear of each niche. Each niche, and the reward magazine, also contained a photocell to detect head entry. Test chambers were controlled by Med PC software.
The 5-CSRTT schedule began with the illumination of the house light and delivery of a food pellet. A nose-poke into the magazine tray initiated the first trial which consisted of an inter-trial interval (ITI, 5 s) followed by the random illumination of one of the 5 lights for a fixed interval (stimulus duration, SD). If a nose-poke was registered in the illuminated niche before the end of either the SD, or a fixed interval after this period (limited hold, LH) a further pellet was dispensed and a Correct Trial registered. […] PSV responses were not punished by a TO.
Each session ran for either 100 trials or 60 min, depending on which session endpoint was achieved first. Animals were trained via a series of steps to final test conditions of 0.75 s SD, 5 s ITI, 5 s limited hold. Target performance was stable performance around a threshold of 80% correct ([correct/(correct+incorrect)]*100) and <20% omissions for at least a two week period. At this point drug testing began according to a repeated measures design with animals receiving treatment over repeated test sessions. […]

[3] = tested on: adult male Sprague-Dawley rats; test: Sleep/wake parameters, repeated measures; details: first 6 hours post-dosing, n=8
Description: Using a counter-balanced, repeated measures design, three doses of Compound 1 (1-10 mg/kg, p.o.) were tested for their effects on sleep/wake parameters in adult male Sprague-Dawley rats (n=8). The results were compared with the effects on caffeine (10 mg/kg).
Methods. Eight (n=8) adult male Sprague Dawley rats were used in this study. Each rat received Compound 1 at 3 doses (1, 3 and 10 mg/kg), vehicle (purified H2O-negative control) and caffeine (10 mg/kg—positive control). […] Sleep parameters (non-rapid eye movement sleep, NR; rapid eye movement sleep, REM) were recorded and the first 6 hours post-dosing records were analyzed.

male Sprague-Dawley rats = test: Binge-like eating of chocolate; details: for chocolate intake vs VEH: 4 h pre-treatment, 1-hr session
Text: Methods. A new group of male Sprague-Dawley rats (n=8; initial weight 300-325 g) was used for the binge-like eating experiment. They were pair-housed under the same conditions described above, however, they were not food restricted, and in the home cage were allowed ad libitum access to food (laboratory chow) and water. Acquisition of the binge-like eating took place over the course of 12 exposure sessions. A 3-day, 1-hr habituation exposure to an empty feeding cage with a ceramic dish took place before chocolate exposure. With chocolate exposure, rats received chocolate (0.3 g fat, 0.57 g carbohydrate, and 0.073 g protein with a total of 5.34 kcal/g) on days 1, 2, 4, 6, 7, 9, 12, 14, 15, 18, 23, and 28. On exposure days, rats were placed in an empty feeding cage with a ceramic dish containing ground chocolate for 1 hr. Weight of chocolate was taken before and after each session to determine intake.
Drug Administration. Upon completion of the 12 acquisition sessions of binge-like eating rats continued to be exposed to chocolate sessions twice a week for 1-hr in empty feeding cages with a ceramic dish containing chocolate. One session was for maintenance of the binge-like behavior, and then the second was for drug treatment. These sessions took place randomly throughout the week with the maintenance session always occurring prior to the drug treatment session. Compound 1 was dissolved in 0.3% Tween 80 in dH2O. Vehicle (VEH), or doses of 5.0, 10.0, and 20.0 mg/kg were administered via oral gavage once a week for testing. A pre-treatment lead time of four hours was used. A within-subjects design was used in this study, with each rat receiving one treatment per week for a total of four weeks. Treatment conditions were selected randomly.
Data Analysis. Repeated measures ANOVA and planned comparisons were used to assess the effect of Compound 1 on binge-like eating of chocolate.

[4] = 10.0 mg/kg oral gavage, n=31, p<0.001
[5] = 20.0 mg/kg oral gavage, n=31, p<0.001
[6] = standard conditions 0.75 s SD, 5 s ITI, 100 trials, 1, 3, 10 mg/kg PO, P<0.01
[7] = standard conditions, 1, 3, 10 mg/kg PO

## CCC[C@]1(C(=O)c2ccc(Cl)c(Cl)c2)CCNC1 [Compound 1, (3,4-dichloro-phenyl)-((S)-3-propyl-pyrrolidin-3-yl)-methanone]
[1]; 20.0 mg/kg oral gavage
  rats that pressed the lever but refrained from eating some of the pellets: 6 of the 16
[1]; 20.0 mg/kg oral gavage, 30-minute session, unpaired t-test t=9.74, p<0.001
  lever pressing vs VEH in FR1 probe: significant decrease in lever pressing
[1]; 20.0 mg/kg, after the 30-minute operant session
  uneaten pellets left in the food dishes of these animals: 5-10 pellets
[2]; 5.0 mg/kg oral gavage, n=31, p<0.001
  standard chow intake vs VEH: significant decreases
[2]; 5.0 mg/kg oral gavage, n=31, p=n.s.
  lever pressing vs VEH: No significant difference
[2]; [4]
  lever pressing vs VEH: significant decreases in lever pressing
  standard chow intake vs VEH: significant decreases
[2]; [5]
  lever pressing vs VEH: significant decreases in lever pressing
  standard chow intake vs VEH: significant decreases
[2]; 5.0-20.0 mg/kg oral gavage
  overall conclusion on appetite: appetite suppressant effects
[2]; 5.0 mg/kg, p<0.010
  chow intake vs VEH, high responders: significant decreases in chow intake
[2]; 5.0 mg/kg, p=n.s.
  lever pressing vs VEH, high responders: no significant difference
  lever pressing vs VEH, low responders: no significant differences
[2]; 10.0 mg/kg, p<0.001
  chow intake vs VEH, high responders: significant decreases in chow intake
  lever pressing vs VEH, high responders: significant decreases in lever pressing
  lever presses, low responders (chow-intake analysis, FIG. 15): significant decreases in lever presses
[2]; 20.0 mg/kg, p<0.001
  chow intake vs VEH, high responders: significant decreases in chow intake
  lever pressing vs VEH, high responders: significant decreases in lever pressing
  lever presses, low responders (chow-intake analysis, FIG. 15): significant decreases in lever presses
[2]; 5.0 mg/kg, p<0.001
  lever presses, low responders (chow-intake analysis, FIG. 15): significant decreases in lever presses
[2]; 10.0 mg/kg, p=n.s.
  lever pressing vs VEH, low responders: no significant differences
[2]; 20.0 mg/kg, p=n.s.
  lever pressing vs VEH, low responders: no significant differences
Male Long Evans Rats; 10 s ITI schedule, 1 and 3 mg/kg PO, LI and HI subgroups, P<0.01
  PREM responses in low/high impulsive subgroups: main effects of treatment and subgroup x treatment interactions
Male Long Evans Rats; 10 s ITI schedule, 1 and 3 mg/kg PO, LI and HI subgroups, treatment P=0.02, interaction P<0.01
  PSV responses in low/high impulsive subgroups: main effects of treatment and subgroup x treatment interactions
Male Long Evans Rats; 10 s ITI, 0.3 s SD schedule, 1 and 3 mg/kg PO, all N=21 rats, F2,40≤2.5, NS
  any task measure (accuracy % correct, % hit, PREM/PSV responses): no main effects of treatment on any measure
Male Long Evans Rats; FIGS. 10A and 10B
  impulsive behaviors in rats: reduces impulsive behaviors
Male Long Evans Rats; [6]
  perseverative (PSV) responses relative to vehicle: dose-related decrease; also recorded: dose-dependently reduced
  premature (PREM) responses relative to vehicle: dose-related decrease; also recorded: dose-dependently reduced
Male Long Evans Rats; standard conditions, 10 mg/kg PO
  trial number: decreased
Male Long Evans Rats; [7]
  accuracy: no main effects of treatment; also recorded: no adverse effects
  speed of responding: no adverse effects
[3]; 3 mg/kg p.o.
  REM sleep: reduced REM sleep, but to a lesser extent
  wake: significantly increased wake
[3]; 10 mg/kg p.o.
  REM sleep: complete suppression of REM sleep
  wake: wake-promoting effects
Male Sprague-Dawley rats; 5.0 mg/kg oral gavage, n=8, n.s.
  chocolate intake vs VEH: did not significantly suppress chocolate intake
Male Sprague-Dawley rats; 10.0 mg/kg oral gavage, n=8, p<0.001
  chocolate intake vs VEH: significant reductions in chocolate intake
Male Sprague-Dawley rats; 20.0 mg/kg oral gavage, n=8, p<0.001
  chocolate intake vs VEH: significant reductions in chocolate intake
Male Sprague-Dawley rats; rat, in vivo
  binge eating in animal model (FIGS. 8 and 9): effective in controlling binge eating
